Tests used:
[1] = target: T1, Cholesteryl ester transfer protein (Oryctolagus cuniculus, UniProt P22687); experiment: Inhibition of Oryctolagus cuniculus (rabbit) CETP-mediated cholesteryl ester transfer after 1 hr by fluorescence assay
T1 sequence (P22687 whole entry): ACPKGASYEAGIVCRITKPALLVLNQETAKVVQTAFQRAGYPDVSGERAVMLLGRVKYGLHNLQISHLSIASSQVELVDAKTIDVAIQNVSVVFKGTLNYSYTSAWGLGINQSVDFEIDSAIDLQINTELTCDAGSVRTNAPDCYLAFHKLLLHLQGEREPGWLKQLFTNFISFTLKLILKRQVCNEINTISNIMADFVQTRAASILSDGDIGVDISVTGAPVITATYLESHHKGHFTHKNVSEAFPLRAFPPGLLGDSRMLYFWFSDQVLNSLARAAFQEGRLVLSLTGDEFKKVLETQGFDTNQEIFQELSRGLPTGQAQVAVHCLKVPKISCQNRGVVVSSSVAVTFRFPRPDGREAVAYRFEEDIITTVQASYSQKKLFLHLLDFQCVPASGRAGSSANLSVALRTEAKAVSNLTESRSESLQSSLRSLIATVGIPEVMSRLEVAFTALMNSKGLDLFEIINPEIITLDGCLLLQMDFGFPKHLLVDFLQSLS

[2] = target: T2, Cholesteryl ester transfer protein (Oryctolagus cuniculus) (UniProt P22687); experiment: Inhibition of Oryctolagus cuniculus (rabbit) CETP-mediated cholesteryl ester transfer at 10 uM after 1 hr by fluorescence assay
T2 sequence (whole entry): T1 sequence (P22687 whole entry)

SMILES	IC50 [1] [µM]	inhibition [2] [%]
Cc1ccc(S(=O)(=O)Oc2ccc(N(Cc3cccc(C)c3)Cc3cccc(C)c3)cc2)cc1		29
Cc1ccc(S(=O)(=O)Oc2ccc(N(Cc3ccc(Cl)cc3)Cc3ccc(Cl)cc3)cc2)cc1		24.9
Cc1ccc(S(=O)(=O)Oc2ccc(N(Cc3cccc(Cl)c3)Cc3cccc(Cl)c3)cc2)cc1	28.5	31.9
Cc1ccc(S(=O)(=O)N(c2ccc(OCc3cccc(C(F)(F)F)c3)cc2)S(=O)(=O)c2ccc(C)cc2)cc1	11.1	39
COc1cccc(COc2ccc(NS(=O)(=O)c3ccc(C)cc3)cc2)c1		22.8
Cc1ccc(S(=O)(=O)Oc2ccc(NCc3cccc(Br)c3)cc2)cc1		16.1
Cc1ccc(S(=O)(=O)Oc2ccc(N(Cc3ccc([N+](=O)[O-])cc3)Cc3ccc([N+](=O)[O-])cc3)cc2)cc1		9.3
Cc1ccc(S(=O)(=O)Oc2ccc(NCc3cccc(C)c3)cc2)cc1	30.1	31.3
Cc1ccc(CN(Cc2ccc(C)cc2)c2ccc(OS(=O)(=O)c3ccc(C)cc3)cc2)cc1		22.3
Cc1ccc(S(=O)(=O)Oc2ccc(N(Cc3cccc(Br)c3)Cc3cccc(Br)c3)cc2)cc1		23.1
Cc1ccc(COc2ccc(NS(=O)(=O)c3ccc(C)cc3)cc2)cc1		0
Cc1ccc(S(=O)(=O)Nc2ccc(OCc3ccc(Cl)cc3)cc2)cc1		23
Cc1ccc(S(=O)(=O)N(c2ccc(OCc3cccc(C)c3)cc2)S(=O)(=O)c2ccc(C)cc2)cc1	3.4	66.9
Cc1ccc(S(=O)(=O)Nc2ccc(OCc3cccc(Cl)c3)cc2)cc1		29.6
Cc1ccc(S(=O)(=O)Nc2ccc(OCc3ccc([N+](=O)[O-])cc3)cc2)cc1		15.5
Cc1ccc(S(=O)(=O)Oc2ccc(NCc3cccc([N+](=O)[O-])c3)cc2)cc1		29.9
Cc1ccc(S(=O)(=O)Oc2ccc(N(Cc3cccc([N+](=O)[O-])c3)Cc3cccc([N+](=O)[O-])c3)cc2)cc1	29.7	31.4

Further lines, results first:

IC50 [1] [µM]	inhibition [2] [%]	SMILES
10.5	42.6	Cc1ccc(S(=O)(=O)N(c2ccc(OCc3cccc(Cl)c3)cc2)S(=O)(=O)c2ccc(C)cc2)cc1
	24.7	Cc1ccc(S(=O)(=O)Oc2ccc(N(Cc3cccc(C(F)(F)F)c3)Cc3cccc(C(F)(F)F)c3)cc2)cc1
	9.9	Cc1ccc(S(=O)(=O)Nc2ccc(OCc3ccc(C(F)(F)F)cc3)cc2)cc1
13.2	37.5	Cc1ccc(S(=O)(=O)N(c2ccc(OCc3ccc(Cl)cc3)cc2)S(=O)(=O)c2ccc(C)cc2)cc1
	17.5	Cc1ccc(S(=O)(=O)Oc2ccc(N(Cc3ccc(Br)cc3)Cc3ccc(Br)cc3)cc2)cc1
	10.2	Cc1ccc(S(=O)(=O)Nc2ccc(OCc3ccc(Br)cc3)cc2)cc1
3.9	65.3	COc1cccc(COc2ccc(N(S(=O)(=O)c3ccc(C)cc3)S(=O)(=O)c3ccc(C)cc3)cc2)c1

— ChEMBL document CHEMBL3046300, “Design, synthesis, and biological evaluation of sulfonic acid ester and benzenesulfonamide derivatives as potential CETP inhibitors” (Med Chem Res, 2012)
